Experimental data reported in ChEMBL document CHEMBL5113435, “Development of an automated screen for Kv7.2 potassium channels and discovery of a new agonist chemotype” (Bioorg Med Chem Lett, 2022).

Key:
[1] = species: Homo sapiens; settings: filed as agonist, dose 5.0 µM
Description: Agonist activity at Kv7.2 W236L mutant (unknown origin) assessed as shifting of voltage dependent activation to more negative potentials at 5 uM by SyncroPatch assay

[2] = molecular target: T1, Potassium voltage-gated channel subfamily KQT member 2 (Homo sapiens, UniProt O43526); settings: filed as agonist, dose 5.0 µM
Description: Agonist activity at Kv7.2 (unknown origin) assessed as shifting of voltage dependent activation to more negative potentials at 5 uM by SyncroPatch assay

[3] = molecular target: Potassium voltage-gated channel subfamily KQT member 5 (Homo sapiens, UniProt Q9NR82); assay: Agonist activity at Kv7.5 (unknown origin) expressed in CHO cells co-expressing GFP; format: cell-based
Sequence of Potassium voltage-gated channel subfamily KQT member 5 (Q9NR82 whole entry): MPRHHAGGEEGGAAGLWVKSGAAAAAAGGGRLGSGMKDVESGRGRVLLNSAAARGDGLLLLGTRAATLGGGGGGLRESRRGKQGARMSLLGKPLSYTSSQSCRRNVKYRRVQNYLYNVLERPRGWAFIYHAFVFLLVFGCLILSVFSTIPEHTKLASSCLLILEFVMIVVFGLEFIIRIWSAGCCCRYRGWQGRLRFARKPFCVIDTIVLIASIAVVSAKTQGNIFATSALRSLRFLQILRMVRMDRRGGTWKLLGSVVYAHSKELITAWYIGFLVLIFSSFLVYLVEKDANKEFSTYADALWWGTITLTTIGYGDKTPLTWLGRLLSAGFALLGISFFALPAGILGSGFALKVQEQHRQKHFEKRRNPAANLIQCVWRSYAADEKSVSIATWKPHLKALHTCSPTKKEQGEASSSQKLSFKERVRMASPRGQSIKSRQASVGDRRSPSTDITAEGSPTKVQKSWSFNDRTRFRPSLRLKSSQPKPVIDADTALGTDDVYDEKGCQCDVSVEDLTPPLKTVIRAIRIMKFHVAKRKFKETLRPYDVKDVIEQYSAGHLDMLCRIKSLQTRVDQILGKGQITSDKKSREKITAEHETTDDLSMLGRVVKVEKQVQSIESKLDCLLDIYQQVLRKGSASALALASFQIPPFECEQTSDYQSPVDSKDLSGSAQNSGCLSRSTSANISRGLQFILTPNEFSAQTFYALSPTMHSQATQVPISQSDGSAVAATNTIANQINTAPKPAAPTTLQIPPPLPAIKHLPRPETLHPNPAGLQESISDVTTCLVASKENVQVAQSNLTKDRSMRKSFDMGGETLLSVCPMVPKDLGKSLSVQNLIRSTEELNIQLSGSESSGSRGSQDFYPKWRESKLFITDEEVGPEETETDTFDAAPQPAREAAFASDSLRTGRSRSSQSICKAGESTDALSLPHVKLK

[4] = molecular target: T2, Potassium voltage-gated channel subfamily KQT member 4 (Homo sapiens, UniProt P56696); assay: Agonist activity at Kv7.4 (unknown origin) expressed in CHO cells co-expressing GFP; format: cell-based
T2 sequence (P56696 whole entry): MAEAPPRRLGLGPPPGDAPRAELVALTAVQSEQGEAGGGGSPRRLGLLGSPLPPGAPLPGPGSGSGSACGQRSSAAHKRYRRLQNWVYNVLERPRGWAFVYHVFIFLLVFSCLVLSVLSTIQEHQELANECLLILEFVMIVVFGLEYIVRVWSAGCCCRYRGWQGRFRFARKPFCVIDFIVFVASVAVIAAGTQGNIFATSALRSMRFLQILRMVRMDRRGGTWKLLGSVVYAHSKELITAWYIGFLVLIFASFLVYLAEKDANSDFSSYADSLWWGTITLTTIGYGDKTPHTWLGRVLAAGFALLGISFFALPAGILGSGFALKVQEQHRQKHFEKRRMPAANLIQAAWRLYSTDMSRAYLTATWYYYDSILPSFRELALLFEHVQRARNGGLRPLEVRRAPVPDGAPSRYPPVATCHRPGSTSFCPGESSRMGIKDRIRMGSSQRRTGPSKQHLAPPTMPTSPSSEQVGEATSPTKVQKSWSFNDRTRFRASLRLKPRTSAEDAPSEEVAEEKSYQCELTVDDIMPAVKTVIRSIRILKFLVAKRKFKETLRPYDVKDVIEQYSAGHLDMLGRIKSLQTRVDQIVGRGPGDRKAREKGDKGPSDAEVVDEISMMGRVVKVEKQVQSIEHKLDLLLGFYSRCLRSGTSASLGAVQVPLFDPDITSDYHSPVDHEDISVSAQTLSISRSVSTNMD

[5] = molecular target: Voltage-gated potassium channel, KQT; KCNQ2(Kv7.2)/KCNQ3(Kv7.3) (Homo sapiens, UniProt O43525+O43526); assay: Agonist activity at Kv7.2/3 (unknown origin) expressed in CHO cells co-expressing GFP; format: cell-based
Sequence of Voltage-gated potassium channel, KQT; KCNQ2(Kv7.2)/KCNQ3(Kv7.3) (O43526 whole entry): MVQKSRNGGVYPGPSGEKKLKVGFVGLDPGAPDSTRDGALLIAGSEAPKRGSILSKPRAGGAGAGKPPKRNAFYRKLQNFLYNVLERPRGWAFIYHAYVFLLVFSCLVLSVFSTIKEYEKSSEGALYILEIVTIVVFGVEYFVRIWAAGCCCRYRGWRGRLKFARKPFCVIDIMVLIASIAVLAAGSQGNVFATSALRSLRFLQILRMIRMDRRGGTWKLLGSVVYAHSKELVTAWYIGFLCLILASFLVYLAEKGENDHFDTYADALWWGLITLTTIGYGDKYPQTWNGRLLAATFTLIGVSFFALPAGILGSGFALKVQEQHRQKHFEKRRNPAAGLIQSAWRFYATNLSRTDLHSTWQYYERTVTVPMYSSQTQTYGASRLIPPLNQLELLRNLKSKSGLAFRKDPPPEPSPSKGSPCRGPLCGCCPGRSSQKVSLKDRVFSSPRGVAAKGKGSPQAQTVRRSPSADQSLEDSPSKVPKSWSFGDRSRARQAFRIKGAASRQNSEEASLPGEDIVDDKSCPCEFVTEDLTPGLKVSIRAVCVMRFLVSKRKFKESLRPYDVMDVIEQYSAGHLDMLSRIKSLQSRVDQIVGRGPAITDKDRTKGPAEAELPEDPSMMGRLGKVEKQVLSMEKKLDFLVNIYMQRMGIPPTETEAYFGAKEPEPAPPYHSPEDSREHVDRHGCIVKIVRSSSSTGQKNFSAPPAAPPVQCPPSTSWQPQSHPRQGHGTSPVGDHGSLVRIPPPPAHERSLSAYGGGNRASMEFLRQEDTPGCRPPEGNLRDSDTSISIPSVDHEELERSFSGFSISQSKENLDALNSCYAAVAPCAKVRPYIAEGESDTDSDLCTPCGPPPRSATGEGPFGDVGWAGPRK
Sequence of Voltage-gated potassium channel, KQT; KCNQ2(Kv7.2)/KCNQ3(Kv7.3) (O43525 whole entry): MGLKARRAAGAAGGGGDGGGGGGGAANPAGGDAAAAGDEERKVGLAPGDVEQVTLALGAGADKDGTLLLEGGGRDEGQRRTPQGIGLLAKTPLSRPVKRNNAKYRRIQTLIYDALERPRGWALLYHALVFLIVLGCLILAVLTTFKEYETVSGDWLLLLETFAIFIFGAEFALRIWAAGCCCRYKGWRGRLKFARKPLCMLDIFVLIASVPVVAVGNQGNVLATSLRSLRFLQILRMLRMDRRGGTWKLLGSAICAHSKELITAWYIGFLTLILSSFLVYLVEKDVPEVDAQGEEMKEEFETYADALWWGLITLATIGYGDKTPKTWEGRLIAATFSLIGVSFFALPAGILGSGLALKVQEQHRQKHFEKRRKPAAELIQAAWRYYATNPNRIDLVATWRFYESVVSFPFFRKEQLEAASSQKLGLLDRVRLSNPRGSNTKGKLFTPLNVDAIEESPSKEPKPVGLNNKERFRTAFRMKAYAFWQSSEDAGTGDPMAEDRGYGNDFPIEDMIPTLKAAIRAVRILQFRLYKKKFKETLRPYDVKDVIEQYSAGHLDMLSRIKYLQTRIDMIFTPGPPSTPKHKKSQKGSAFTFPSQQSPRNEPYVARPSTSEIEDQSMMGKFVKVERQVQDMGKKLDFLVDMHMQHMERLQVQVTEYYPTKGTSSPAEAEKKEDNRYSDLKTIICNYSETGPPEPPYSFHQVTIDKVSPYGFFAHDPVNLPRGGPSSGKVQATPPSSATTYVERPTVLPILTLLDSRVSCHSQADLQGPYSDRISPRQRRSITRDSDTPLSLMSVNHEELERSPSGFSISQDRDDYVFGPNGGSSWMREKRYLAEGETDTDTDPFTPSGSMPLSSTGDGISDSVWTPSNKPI

[6] = molecular target: T1, Potassium voltage-gated channel subfamily KQT member 2; assay: Agonist activity at Kv7.2 (unknown origin) assessed as shifting of voltage dependent activation to more negative potentials by SyncroPatch assay
[7] = species: Homo sapiens; assay: Selectivity index, ratio of EC50 for agonist activity at Kv7.4 (unknown origin) expressed in CHO cells co-expressing GFP to EC50 for agonist activity at Kv7.2/3 (unknown origin) expressed in CHO cells co-expressing GFP; format: cell-based
[8] = species: Homo sapiens; assay: Selectivity index, ratio of EC50 for agonist activity at Kv7.5 (unknown origin) expressed in CHO cells co-expressing GFP to EC50 for agonist activity at Kv7.2/3 (unknown origin) expressed in CHO cells co-expressing GFP; format: cell-based

T1 sequence (O43526 whole entry): as the sequence (O43526 whole entry) above

Compound	V1/2 [1] [mV]	V1/2 [2] [mV]	other results
COc1ccc(CNc2cc3ccccc3c(=O)[nH]2)cc1	1.3	-3	–
O=C(Cc1cc(F)cc(F)c1)Nc1ccc2[nH]c(-c3ccc(C(F)(F)F)cc3)cc2c1	2.4	-1.1	–
COc1ccc2c(c1)[C@@H](NC(C)=O)[C@H](C)[C@@H](c1ccccc1)N2C(=O)Nc1ccc(C(F)(F)F)cc1	-2.7	10	–
CCOC(=O)Nc1ccc2[nH]c(-c3ccc(C(F)(F)F)cc3)cc2c1	-6	-4.8	–
O=C(Nc1ccc2[nH]c(-c3ccc(C(F)(F)F)cc3)cc2c1)OC1CC1	4.7	6.2	–
CC[C@H]1Nc2ccc(OC)cc2[C@@H](NS(C)(=O)=O)[C@@H]1C	2.8	-3	–
CCOC(=O)Nc1ccc2[nH]c(-c3ccc(F)cc3)cc2c1	2.5	-0.66	–
CCOC(=O)Nc1ccc(NCc2ccc(C(F)(F)F)nc2)c(F)c1N	–	–	EC50 [3]: 540 nM; EC50 [4]: 660 nM; EC50 [5]: 3360 nM
[2H]c1cc(NC(=O)OCC)c(N)c(F)c1NCc1ccc(C(F)(F)F)cc1	–	–	EC50 [6]: 980 nM
Nc1c(F)c(NCc2ncc(C(F)(F)F)cc2F)c(F)c(F)c1NC(=O)OC1CC1	–	–	EC50 [3]: 3780 nM; EC50 [4]: 320 nM
CC(C)OC(=O)Nc1ccc2[nH]c(-c3ccc(C(F)(F)F)cc3)cc2c1	-0.31	-3.2	–
CCOC(=O)Nc1cc(F)c(NCc2ccc(C(F)(F)F)cc2)c(F)c1N	–	–	EC50 [3]: 1060 nM; EC50 [4]: 87 nM
CCOC(=O)Nc1ccc(NCc2ccc(C(F)(F)F)cc2)c(F)c1N	1.9	-48.1	V1/2 ([1]; tested as the 2H-labelled form): -4.4 mV; V1/2 ([2]; tested as the 2H-labelled form): -45.2 mV
COc1ccc2c(c1)[C@@H](NC(C)=O)[C@H](C)[C@@H](c1ccccc1)N2C(C)=O	0.26	2.5	–
COc1ccc2c(c1)[C@@H](NC(=O)OCc1ccccc1)[C@H](C)[C@@H](c1ccccc1)N2C(=O)NC(C)C	4.9	6.2	–
CCOC(=O)Nc1ccc(NCc2ccc(F)cc2)nc1N	1.2	-23.8	–
Nc1c(NC(=O)OC2CC2)ccc(NCc2ccc(C(F)(F)F)cc2)c1F	-9.3	-44.9	EC50 [6]: 3030 nM; EC50 [3]: 3780 nM; Ratio EC50 [7]: 50; EC50 [4]: 910 nM; Ratio EC50 [8]: 50; EC50 [5]: 18 nM
CCOC(=O)Nc1ccc(NCc2ccc(F)cc2)cc1N [EZOGABINE]	4.2	-34.3	EC50 [6]: 4210 nM
CCOC(=O)Nc1cc(F)c2c(c1N)S(=O)(=O)CC(c1ccccc1)N2 (stereo unspecified)	2.8	4.4	–
CC(C)(C)CC(=O)Nc1ccc2[nH]c(-c3ccc(C(F)(F)F)cc3)cc2c1	3.2	-4.1	–
O=C(Cc1ccc(OC(F)(F)F)cc1)Nc1ccc2[nH]c(-c3ccc(C(F)(F)F)cc3)cc2c1	3.9	-8.9	–
